Source: patent publication US20020058299A1, “Mycologic genera specific selective agar and method of manufacture” (priority 2000, published 2002)

System: aggressive fungi
Experiment: Empirical trials of Minimum Inhibitory Concentration levels that suppress aggressive fungi without restricting Stachybotrys
Format: cell-based
Conditions: added to PDA base media
Experimental: In order to be successful in culturing Stachybotrys from environmental samples, Aspergillus flavus, Aspergillus fumigatus, Aspergillus vervicolor, Cladosporium species, Penicillium species, in addition to other fungi and bacteria, need to be suppressed. While conceptually simple, the difficulty is to determine which base media, in combination with which one or more antibiotics, at what concentrations, incubated at what temperature regimes, for how long, would achieve inhibition of competitors—without restricting Stachybotrys. Extensive experimental trials empirically determined the Minimum Inhibitory Concentration (MIC) levels of various compounds that would effectively suppress aggressive fungi without restricting Stachybotrys development. Through this empirical effort there has been developed a proprietary formula for a selective agar (PDA+) based on commercially available base media and additional ingredients for the specific recovery of Stachybotrys chartarum.
(2) Miconazole (antifungal compound added to base media at 1.6 micrograms (μg) per milliliter (ml) of PDA+, the optimum concentration within the functional range of 1.0 to 3.2 μg/ml).

Clc1ccc(COC(Cn2ccnc2)c2ccc(Cl)cc2Cl)c(Cl)c1 (stereo not shown) [Miconazole]
optimum concentration in PDA+: 1.6 micrograms (μg) per milliliter (ml)
